The values below come from patent US7452865B2, “Antagonistic analogs of GH RH (2003)” (The Administrare's of the Tulane Educational Fund, priority 2004, dated 2008).

Square brackets hold non-standard residues; d marks the D form. Peptide text beside a SMILES is read from it. * marks the point of attachment. Phe(4-amidino) = N=C(N)c1ccc(C[C@H](N)C(=O)O)cc1; Phe(4-Cl) = N[C@@H](Cc1ccc(Cl)cc1)C(=O)O; hArg = N=C(N)NCCCC[C@H](N)C(=O)O; Nle = CCCC[C@H](N)C(=O)O; Abu = CC[C@H](N)C(=O)O; PhAc = O=C(Cc1ccccc1)*

The subject of assay [1] is hGH-RH(1-29)NH2 induced GH release. The assay is described as follows: Inhibition of GH release in superfused rat pituitary system. In kind it is cell-based. Put shortly: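 GH output was quantified by double-antibody RIA in superfusates of rat pituitary cells. Peptides were applied for 9 min at various concentrations before a 3-min 1 nM hGH-RH(1-29)NH2 pulse, with further pulses 30–120 min later; net integral responses given as percent of the original response.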

Assay [2] has as its system IGF-II. The assay is described as follows: PC-3 xenografts, Experiment 1: tumor IGF-II (RIA). In kind it is in vivo, nude mice. The note with it: 10 μg/day s.c., 28 days. From the text: For the measurement of GH and IGF-I levels in the serum, as well as IGF-I and IGF-II concentrations in the cytosol fraction of tumors, blood samples and tumor samples were collected and processed as described (Braczkowski R, Schally A V, Plonowski A, Varga J L, Groot K, Krupa M, Armatis P, Cancer 95: 1735-1745, 2002), hereby incorporated by reference. Briefly, blood samples are centrifuged to separate the serum, tumors are homogenized and centrifuged to separate the cytosol fraction. Serum GH is then measured by the double-antibody RIA method. Before measurement by RIA, IGF-I and IGF-II are extracted from serum and cytosol fractions using an acid-ethanol cryoprecipitation method that eliminates most of the IGF binding proteins, which can interfere with the RIA. IGF-I concentration is measured by RIA using IGF-I as a standard and goat anti-IGF-I antibody (both from DSL Inc., Webster, Tex.). IGF-II concentration is measured by RIA using human recombinant IGF-II (Bachem) as a standard and anti-IGF-II monoclonal antibody (Amano International Enzyme, Troy, Va.).
Male nude mice were implanted s.c. with 3 mm^3 pieces of PC-3 human hormone-independent prostate cancer tissue on both flanks. When tumors reached a volume of approx. 50 mm^3, the mice were divided into 5 experimental groups with 7 to 8 animals in each group and received single daily injections for 28 days as follows: 1. Control (vehicle solution); 2. JV-1-38 (10 μg/day s.c.); 3 Peptide 31 (10 μg/day s.c.); 4. Peptide 67 (10 μg/day s.c.); 5. Peptide 62 (10 μg/day s.c.). Tumor volumes were measured twice a week. The experiment was ended on day 29 by sacrificing the mice under Isoflurane anesthesia. Resulting tumors were cleaned, weighed, and snap-frozen until further analyses. Trunk blood was collected from the abdominal aorta and serum was separated for RIA measurement of IGF-I. Statistical analyses of the measurement results were done by two-tailed t-test; data are presented as the means±S.E.

On to `CCCC[C@H](NC(=O)[C@@H](NC(=O)[C@H](CC(=O)O)NC(=O)[C@H](CCC(N)=O)NC(=O)[C@H](CC(C)C)NC(=O)[C@H](CC(C)C)NC(=O)[C@H](CCCCN)NC(=O)[C@H](CCCNC(=N)N)NC(=O)[C@H](C)NC(=O)[C@H](CO)NC(=O)[C@H](CC(C)C)NC(=O)[C@H](CCC(N)=O)NC(=O)[C@H](CC)NC(=O)[C@H](CC(C)C)NC(=O)[C@@H](NC(=O)[C@H](CCCCN)NC(=O)[C@H](CCCNC(=N)N)NC(=O)[C@H](Cc1ccc(OC)cc1)NC(=O)[C@H](Cc1ccc(C(=N)N)cc1)NC(=O)[C@H](CC(N)=O)NC(=O)[C@@H](NC(=O)[C@H](Cc1ccc(Cl)cc1)NC(=O)[C@@H](NC(=O)[C@H](C)NC(=O)[C@H](CC(=O)O)NC(=O)[C@@H](CCCNC(=N)N)NC(=O)[C@H](Cc1ccc(O)cc1)NC(=O)Cc1ccccc1)[C@@H](C)CC)[C@@H](C)O)C(C)C)[C@@H](C)CC)C(=O)N[C@H](CCCNC(=N)N)C(=O)N[C@@H](CCCCNC(=N)N)C(N)=O` [Peptide 67, [PhAc-Tyr^1, D-Arg^2, Phe(pCl)^6, Amp^9, Tyr(Me)^10, Abu^15, Nle^27, D-Arg^28, Har^29]hGH-RH(1-29)NH2] (PhAc-Y[dR]DAI[Phe(4-Cl)]TN[Phe(4-amidino)]Y(Me)RKVL[Abu]QLSARKLLQDI[Nle][dR][hArg]-NH2), for which the “GH response (% of control) 0 min” value in assay [1] (antagonist 30 nM, 1 nM hGH-RH(1-29)NH2 at 0 min) is 28 % of control. Also, the “GH response (% of control) 30 min” value in assay [1] (antagonist 30 nM, 1 nM hGH-RH(1-29)NH2 at 30 min) is listed as 15 % of control. For the same compound, the “GH response (% of control) 60 min” value in assay [1] (antagonist 30 nM, 1 nM hGH-RH(1-29)NH2 at 60 min) is recorded as 18 % of control. In addition, the “GH response (% of control) 90 min” value in assay [1] (antagonist 30 nM, 1 nM hGH-RH(1-29)NH2 at 90 min) was 20 % of control. For the same compound, the “GH response (% of control) 120 min” value in assay [1] (antagonist 30 nM, 1 nM hGH-RH(1-29)NH2 at 120 min) is 23 % of control. In addition, the “endocrine antagonistic potency: inhibition of the GH release stimulated by hGH-RH(1-29)NH2 (in words)” value in assay [1] (general statement, in vitro and in vivo) was “high endocrine antagonistic potencies”. In addition, the “Tumor IGF-II (pg/mg protein)” value in assay [2] is on record as 139 ± 69.2 pg/mg protein. The “Tumor IGF-II (% inhibition)” value in assay [2] (vs control) is given as “(37%)”.
